“And” between values parts separate entries of the source, which are not always exact repeats. Equal values may be shown once.
Test system: K98450-129-R-PDC complex spheroid growth, percent test/control
Test: Anticancer human tumor K98450-129-R-PDC patient-derived colon adenocarcinoma cell line growth inhibition [RAS]
Conditions: for viability, T/C: stronger effect = lower value
How it was run: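 Agents were tested in combination matrices in half-log decrements from a top concentration at or near clinical Cmax (10 microM if undetermined). Targets were multi-cell spheroids of tumour lines plus HUVEC and MSC stromal cells.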
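Note: spheroids exposed to agents for seven days before the viability readout.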
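Throughout, for viability, T/C: luminescence used as a proxy for viable cell amount.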

`CCN1CCN(Cc2ccc(Nc3ncc(F)c(-c4cc(F)c5nc(C)n(C(C)C)c5c4)n3)nc2)CC1` + CCn1c(-c2cc(N3CCN(C)CC3)cnc2C(C)OC)c2c3cc(ccc31)-c1csc(n1)CC(NC(=O)C1CC1C)C(=O)N1CCCC(N1)C(=O)OCC(C)(C)C2 gave an IC50 (curve of first compound, second compound 0.000949 µM) of over 1 µM, an IC50 (curve of first compound, second compound 0.003 µM) of 0.723 µM and an IC50 (curve of first compound, second compound 0.00949 µM) of 0.0732 µM. It also gave an IC50 (curve of first compound, second compound 0.03 µM) of 0.0237 µM, an IC50 (curve of first compound, second compound 0.0949 µM) of under 0.00316 µM and an IC50 (curve of first compound, second compound 0.3 µM) of under 0.00316 µM. The viability, T/C (second compound 0.000949 µM, first compound 0.00316 µM) was 75.8%, the viability, T/C (second compound 0.000949 µM, first compound 0.01 µM) was 83% and the viability, T/C (second compound 0.000949 µM, first compound 0.0316 µM) was 90.9%. For the same compound, the viability, T/C (second compound 0.000949 µM, first compound 0.1 µM) was 80.8%, the viability, T/C (second compound 0.000949 µM, first compound 0.316 µM) was 65.6% and the viability, T/C (second compound 0.000949 µM, first compound 1 µM) was 65.6%. It also gave a viability, T/C (second compound 0.003 µM, first compound 0.00316 µM) of 95.1%, a viability, T/C (second compound 0.003 µM, first compound 0.01 µM) of 85.8% and a viability, T/C (second compound 0.003 µM, first compound 0.0316 µM) of 72.5%. The viability, T/C (second compound 0.003 µM, first compound 0.1 µM) was 71%, the viability, T/C (second compound 0.003 µM, first compound 0.316 µM) was 54.1% and the viability, T/C (second compound 0.003 µM, first compound 1 µM) was 47.6%. For the same compound, the viability, T/C (second compound 0.00949 µM, first compound 0.00316 µM) was 79.8%, the viability, T/C (second compound 0.00949 µM, first compound 0.01 µM) was 64.1% and the viability, T/C (second compound 0.00949 µM, first compound 0.0316 µM) was 59.2%. The viability, T/C (second compound 0.00949 µM, first compound 0.1 µM) was 47.7%, the viability, T/C (second compound 0.00949 µM, first compound 0.316 µM) was 38.6% and the viability, T/C (second compound 0.00949 µM, first compound 1 µM) was 33.2%. For the same compound, the viability, T/C (second compound 0.03 µM, first compound 0.00316 µM) was 49.8%, the viability, T/C (second compound 0.03 µM, first compound 0.01 µM) was 51.8% and the viability, T/C (second compound 0.03 µM, first compound 0.0316 µM) was 49.7%. The viability, T/C (second compound 0.03 µM, first compound 0.1 µM) was 27.2%, the viability, T/C (second compound 0.03 µM, first compound 0.316 µM) was 24.4% and the viability, T/C (second compound 0.03 µM, first compound 1 µM) was 25.9%. It also gave a viability, T/C (second compound 0.0949 µM, first compound 0.00316 µM) of 18.8%, a viability, T/C (second compound 0.0949 µM, first compound 0.01 µM) of 18.5% and a viability, T/C (second compound 0.0949 µM, first compound 0.0316 µM) of 17.3%. It also gave a viability, T/C (second compound 0.0949 µM, first compound 0.1 µM) of 14.1%, a viability, T/C (second compound 0.0949 µM, first compound 0.316 µM) of 18.4% and a viability, T/C (second compound 0.0949 µM, first compound 1 µM) of 22.8%. For the same compound, the viability, T/C (second compound 0.3 µM, first compound 0.00316 µM) was 10.8%, the viability, T/C (second compound 0.3 µM, first compound 0.01 µM) was 13.6% and the viability, T/C (second compound 0.3 µM, first compound 0.0316 µM) was 11.3%. The viability, T/C (second compound 0.3 µM, first compound 0.1 µM) was 12.7%, the viability, T/C (second compound 0.3 µM, first compound 0.316 µM) was 16.3% and the viability, T/C (second compound 0.3 µM, first compound 1 µM) was 23.1%.

`CC(C)NCC(C(=O)N1CCN(c2ncnc3c2C(C)CC3O)CC1)c1ccc(Cl)cc1` (stereo not given) + C=CC(=O)N1CCN(c2nc(OCC3CCCN3C)nc3c(F)c(-c4nc(N)cc(C)c4C(F)(F)F)c(Cl)cc23)C(C)C1 was tested, and the IC50 (curve of first compound, second compound 0.00316 µM) was over 10 µM, the IC50 (curve of first compound, second compound 0.01 µM) was over 10 µM and the IC50 (curve of first compound, second compound 0.0316 µM) was over 10 µM. For the same compound, the IC50 (curve of first compound, second compound 0.1 µM) was over 10 µM, the IC50 (curve of first compound, second compound 0.316 µM) was under 0.0316 µM and the IC50 (curve of first compound, second compound 1 µM) was under 0.0316 µM. The viability, T/C (second compound 0.00316 µM, first compound 0.0316 µM) was 94.4%, the viability, T/C (second compound 0.00316 µM, first compound 0.1 µM) was 97.7% and the viability, T/C (second compound 0.00316 µM, first compound 0.316 µM) was 94.8%. For the same compound, the viability, T/C (second compound 0.00316 µM, first compound 1 µM) was 93.2%, the viability, T/C (second compound 0.00316 µM, first compound 3.16 µM) was 91.4% and the viability, T/C (second compound 0.00316 µM, first compound 10 µM) was 91.2%. The viability, T/C (second compound 0.01 µM, first compound 0.0316 µM) was 89.3%, the viability, T/C (second compound 0.01 µM, first compound 0.1 µM) was 81.3% and the viability, T/C (second compound 0.01 µM, first compound 0.316 µM) was 85.1%. For the same compound, the viability, T/C (second compound 0.01 µM, first compound 1 µM) was 84.6%, the viability, T/C (second compound 0.01 µM, first compound 3.16 µM) was 83.8% and the viability, T/C (second compound 0.01 µM, first compound 10 µM) was 85.3%. For the same compound, the viability, T/C (second compound 0.0316 µM, first compound 0.0316 µM) was 70%, the viability, T/C (second compound 0.0316 µM, first compound 0.1 µM) was 63.7% and the viability, T/C (second compound 0.0316 µM, first compound 0.316 µM) was 65.9%. The viability, T/C (second compound 0.0316 µM, first compound 1 µM) was 67.3%, the viability, T/C (second compound 0.0316 µM, first compound 3.16 µM) was 75% and the viability, T/C (second compound 0.0316 µM, first compound 10 µM) was 75.5%. For the same compound, the viability, T/C (second compound 0.1 µM, first compound 0.0316 µM) was 53.1%, the viability, T/C (second compound 0.1 µM, first compound 0.1 µM) was 52.5% and the viability, T/C (second compound 0.1 µM, first compound 0.316 µM) was 53.7%. For the same compound, the viability, T/C (second compound 0.1 µM, first compound 1 µM) was 57%, the viability, T/C (second compound 0.1 µM, first compound 3.16 µM) was 54.8% and the viability, T/C (second compound 0.1 µM, first compound 10 µM) was 49.6%. It also gave a viability, T/C (second compound 0.316 µM, first compound 0.0316 µM) of 38.3%, a viability, T/C (second compound 0.316 µM, first compound 0.1 µM) of 42.1% and a viability, T/C (second compound 0.316 µM, first compound 0.316 µM) of 41%. It also gave a viability, T/C (second compound 0.316 µM, first compound 1 µM) of 43.7%, a viability, T/C (second compound 0.316 µM, first compound 3.16 µM) of 42.6% and a viability, T/C (second compound 0.316 µM, first compound 10 µM) of 36.4%. It also gave a viability, T/C (second compound 1 µM, first compound 0.0316 µM) of 31.4%, a viability, T/C (second compound 1 µM, first compound 0.1 µM) of 32.7% and a viability, T/C (second compound 1 µM, first compound 0.316 µM) of 35.9%. The viability, T/C (second compound 1 µM, first compound 1 µM) was 32.1%, the viability, T/C (second compound 1 µM, first compound 3.16 µM) was 32.7% and the viability, T/C (second compound 1 µM, first compound 10 µM) was 29%.

For `CCC(CC)c1cc(NC2CCC(N)C2)n2nccc2n1` (stereo not given), the viability, T/C (compound 0.0316 µM) was 99.1% [middle of 4 runs], the viability, T/C (compound 0.316 µM) was 99.2% [middle of 4 runs] and the viability, T/C (compound 1 µM) was 102% (2×) and 98% and 94%. The viability, T/C (compound 3.16 µM) was 90.9% [middle of 4 runs], the viability, T/C (compound 10 µM) was 17.7% [middle of 4 runs] and the IC50 (curve of compound) was 5.89 µM [middle of 4 runs].

— PubChem BioAssay AID2060891 (Molecular Pharmacology Branch, DTP, NCI, 2025)
